Converted amounts (≈) assume the structure as drawn.
Experiments:
Vaccinia virus [1] = test: Antiviral activity against Vaccinia virus-induced cytopathogenicity in HEL cells; type: functional; conditions: Orthopoxvirus vaccinia
Vaccinia virus [2] = test: Antiviral activity against Vaccinia virus-induced cytopathogenicity in E6SM cells; type: functional; conditions: Orthopoxvirus vaccinia

Structure (SMILES) | MIC (Vaccinia virus [1]) [µM] | MIC (Vaccinia virus [2]) [µM]
C=Cc1cn(C/C=C2\OC(=O)C(OCc3ccccc3)=C2OCc2ccccc2)c(=O)[nH]c1=O | > 18 | 
O=C1O/C(=C\Cn2cc(C#Cc3ccccc3)c(=O)[nH]c2=O)C(O)=C1O | 4 (≈ 1.41 µg/mL) | 
O=C1O/C(=C\Cn2cc(-c3ccccc3)c(=O)[nH]c2=O)C(OCc2ccccc2)=C1OCc1ccccc1 |  | 95 (≈ 48.3 µg/mL)
O=C1O/C(=C(\Br)Cn2c(Br)c(/C=C/Br)c(=O)[nH]c2=O)C(OCc2ccccc2)=C1OCc1ccccc1 |  | > 116
C#Cc1cn(C/C=C2\OC(=O)C(O)=C2O)c(=O)[nH]c1=O | 4 (≈ 1.1 µg/mL) | 
O=C1O/C(=C\Cn2cc(-c3ccco3)c(=O)[nH]c2=O)C(O)=C1O | > 100 | 
C#Cc1cn(C/C=C2\OC(=O)C(OCc3ccccc3)=C2OCc2ccccc2)c(=O)[nH]c1=O | > 18 | 
CC#Cc1cn(C/C=C2\OC(=O)C(OCc3ccccc3)=C2OCc2ccccc2)c(=O)[nH]c1=O |  | > 0.4
O=C1O/C(=C\Cn2cc(-c3ccccc3)c(=O)[nH]c2=O)C(O)=C1O | > 100 | 
O=C1O/C(=C\Cn2cc(-c3cccs3)c(=O)[nH]c2=O)C(OCc2ccccc2)=C1OCc1ccccc1 |  | > 156
O=C1O/C(=C\Cn2cc(-c3ccc(Cl)o3)c(=O)[nH]c2=O)C(OCc2ccccc2)=C1OCc1ccccc1 |  | > 150
CC(C)=CCc1cn(C/C=C2\OC(=O)C(OCc3ccccc3)=C2OCc2ccccc2)c(=O)[nH]c1=O | 4 (≈ 2 µg/mL) | 
O=C1O/C(=C\Cn2cc(-c3cccs3)c(=O)[nH]c2=O)C(O)=C1O | > 100 | 
C=Cc1cn(C/C=C2\OC(=O)C(O)=C2O)c(=O)[nH]c1=O |  | > 144
O=C1O/C(=C\Cn2cc(C#Cc3ccccc3)c(=O)[nH]c2=O)C(OCc2ccccc2)=C1OCc1ccccc1 |  | > 40
O=C1O/C(=C\Cn2cc(/C=C/Br)c(=O)[nH]c2=O)C(OCc2ccccc2)=C1OCc1ccccc1 |  | > 150
C=CCc1cn(C/C=C2\OC(=O)C(OCc3ccccc3)=C2OCc2ccccc2)c(=O)[nH]c1=O |  | > 8
O=C1O/C(=C\Cn2cc(-c3ccco3)c(=O)[nH]c2=O)C(OCc2ccccc2)=C1OCc1ccccc1 |  | > 6.4
O=C1O/C(=C\Cn2cc(-c3ccc(Br)o3)c(=O)[nH]c2=O)C(OCc2ccccc2)=C1OCc1ccccc1 |  | > 70
C=C=Cc1cn(C/C=C2\OC(=O)C(OCc3ccccc3)=C2OCc2ccccc2)c(=O)[nH]c1=O |  | > 8
Nc1nc2c(ncn2COCCO)c(=O)[nH]1 [ACYCLOVIR] |  | 300 (≈ 67.6 µg/mL)
O=c1[nH]c(=O)n([C@H]2C[C@H](O)[C@@H](CO)O2)cc1/C=C/Br [BRIVUDINE] |  | 2.4 (≈ 0.8 µg/mL)
Nc1nc2c(ncn2COC(CO)CO)c(=O)[nH]1 [GANCICLOVIR] |  | 60 (≈ 15.3 µg/mL)
NC(=O)c1ncn([C@@H]2O[C@H](CO)[C@@H](O)[C@H]2O)n1 [RIBAVIRIN] |  | 100 (≈ 24.4 µg/mL)

From ChEMBL document CHEMBL1144557, “The novel C-5 aryl, alkenyl, and alkynyl substituted uracil derivatives of L-ascorbic acid: synthesis, cytostatic, and antiviral activity evaluations” (Bioorg Med Chem, 2007)
